Key:
yellow nutsedge = test: Test C pre-/postemergence herbicide test; assay type: in vivo, Cyperus esculentus
Outline: (§1)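 Greenhouse-grown plants were evaluated visually 12 to 14 days after treatment, with 100 meaning complete control and 0 no effect. Application was preemergence, or postemergence at 2 to 18 cm.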

bermudagrass = test: Test C pre-/postemergence herbicide test; assay type: in vivo, Cynodon dactylon; conditions: for Bermudagrass plant response rating: Preemergence, 500 g ai/ha
Outline: as §1

morningglory = test: Test A pre-/postemergence herbicide test; assay type: in vivo, Ipomoea spp.
Outline: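 Plants are held in greenhouse about ten days after treatment, then compared with untreated controls and scored 0 (no effect) to 100 (complete control). Preemergence dosing is a directed soil spray on sown sandy loam; postemergence dosing is spray to runoff at 2–10 cm height.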

woolly cupgrass = test: Test C pre-/postemergence herbicide test; assay type: in vivo, Eriochloa villosa
Outline: as §1

velvetleaf = test: Test C pre-/postemergence herbicide test; assay type: in vivo, Abutilon theophrasti
Outline: as §1

giant foxtail = test: Test C pre-/postemergence herbicide test; assay type: in vivo, Setaria faberi
Outline: as §1

barnyardgrass = test: Test C flooded paddy test; assay type: in vivo, Echinochloa crus-galli; conditions: for Plant response rating, Barnyardgrass: 500 g ai/ha, visual rating after 12 to 14 days
Outline: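 Weeds and wheat were sprayed after emergence, at a height of 2 to 18 cm (1–4 leaves), and paddy barnyardgrass was flooded and treated at two leaves. Assessment took place 12–14 days later in the greenhouse on a 0-to-100 visual control scale. A dash means no result was obtained.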

[1] = tested on: common (oilseed) sunflower; test: Test C pre-/postemergence herbicide test; assay type: in vivo, Helianthus annuus
Outline: as §1

[2] = 62 g ai/ha, preemergence, scale 0 to 100
[3] = 125 g ai/ha, scale 0 (no effect) to 100 (complete control), visual, 12 to 14 days, preemergence
[4] = 250 g ai/ha, scale 0-100, preemergence
[5] = 500 g ai/ha, scale 0 to 100 (0 no effect, 100 complete control), visual, 12 to 14 days, preemergence
[6] = scale 0 to 100, 0 no effect, 100 complete control
[7] = Postemergence, 500 g ai/ha, 0 to 100 scale, 0 no effect, 100 complete control
[8] = Postemergence, 2000 g ai/ha, 0 to 100 scale, 0 no effect, 100 complete control
[9] = Preemergence, 2000 g ai/ha, visual rating, 0 to 100 scale (0 no effect, 100 complete control)
[10] = 62 g ai/ha, scale 0 to 100 (0 no effect, 100 complete control)
[11] = 250 g ai/ha, scale of 0 to 100, 0 is no effect, 100 is complete control
[12] = scale 0 to 100 (0 no effect, 100 complete control)
[13] = Postemergence, 500 g ai/ha, scale 0 to 100
[14] = Postemergence, 250 g ai/ha, scale 0 to 100, 0 no effect, 100 complete control
[15] = Preemergence, 500 g ai/ha, scale 0 to 100, 0 no effect, 100 complete control
[16] = postemergence, 125 g ai/ha, scale 0 to 100
[17] = postemergence, 62 g ai/ha, scale 0 to 100
[18] = 250 g ai/ha, scale 0 to 100 (0 no effect, 100 complete control), visual, 12 to 14 days, preemergence

Question: For CCNC(=O)c1ccc(F)c(NC(=O)C2CC(C(C)(C)C)=NN2CC)c1 (racemic) [Compound 269], which “Plant response rating, Nutsedge, Yellow” value (yellow nutsedge; [2]) is on record?
Answer: Its value is 5.

Question: And the “Plant response rating, Nutsedge, Yellow” value (yellow nutsedge; [3])?
Answer: Its value is 10.

Question: And the “Plant response rating, Nutsedge, Yellow” value (yellow nutsedge; [4])?
Answer: The value was 40.

Question: And the “Plant response rating, Nutsedge, Yellow” value (yellow nutsedge; [5])?
Answer: Its value is 60.

Question: And the “Plant response rating, Bermudagrass” value (bermudagrass; 62 g ai/ha, preemergence, scale 0 to 100, 0 no effect, 100 complete control)?
Answer: Its value is 100.

Question: What about the “Plant response rating, Bermudagrass” value (bermudagrass; [3]) of the same compound?
Answer: The value was 100.

Question: What about the “Plant response rating, Bermudagrass” value (bermudagrass; [4]) of the same compound?
Answer: The value was 100.

Question: What about the “Bermudagrass plant response rating” value (bermudagrass; [6]) of the same compound?
Answer: Its value is 100.

Question: And the “Morningglory plant response rating” value (morningglory; [7])?
Answer: Its value is 20.

Question: And the “Plant response rating, Morningglory” value (morningglory; [8])?
Answer: Its value is 35.

Question: What about the “Morningglory plant response rating” value (morningglory; [9]) of the same compound?
Answer: Its value is 30.

Question: And the “Morningglory plant response rating” value (morningglory; preemergence, 500 g ai/ha, visual injury, 0 to 100 scale (0 no effect, 100 complete control))?
Answer: The value was 20.

Question: What about the “Plant response rating, Cupgrass, Woolly” value (woolly cupgrass; [2]) of the same compound?
Answer: The value was 10.

Question: What about the “Plant response rating, Cupgrass, Woolly” value (woolly cupgrass; [3]) of the same compound?
Answer: Its value is 40.

Question: What about the “Plant response rating, Cupgrass, Woolly” value (woolly cupgrass; [4]) of the same compound?
Answer: The value was 60.

Question: What about the “Plant response rating, Cupgrass, Woolly” value (woolly cupgrass; [5]) of the same compound?
Answer: Its value is 85.

Question: And the “Plant response rating, Velvetleaf” value (velvetleaf; [2])?
Answer: The value was 5.

Question: And the “Plant response rating, Velvetleaf” value (velvetleaf; [4])?
Answer: The value was 75.

Question: What about the “Plant response rating, Velvetleaf” value (velvetleaf; [5]) of the same compound?
Answer: Its value is 80.

Question: What about the “Plant response rating, Foxtail, Giant” value (giant foxtail; [2]) of the same compound?
Answer: The value was 50.

Question: What about the “Plant response rating, Foxtail, Giant” value (giant foxtail; [3]) of the same compound?
Answer: The value was 90.

Question: What about the “Plant response rating, Foxtail, Giant” value (giant foxtail; [4]) of the same compound?
Answer: The value was 100.

Question: And the “Plant response rating, Foxtail, Giant” value (giant foxtail; [5])?
Answer: Its value is 100.

Question: And the “Barnyardgrass plant response rating” value (barnyardgrass; [10])?
Answer: The value was 45.

Question: What about the “Barnyardgrass plant response rating” value (barnyardgrass; 125 g ai/ha, scale 0 to 100 (0 no effect, 100 complete control)) of the same compound?
Answer: Its value is 65.

Question: And the “Barnyardgrass plant response rating” value (barnyardgrass; [11])?
Answer: The value was 75.

Question: And the “Plant response rating, Barnyardgrass” value (barnyardgrass; [12])?
Answer: Its value is 90.

Question: What about the “Plant response rating, Sunflower” value [1, 2] of the same compound?
Answer: The value was 0.

Question: What about the “Plant response rating, Sunflower” value [1, 4] of the same compound?
Answer: The value was 5.

Question: What about the “Plant response rating, Sunflower” value [1, 5] of the same compound?
Answer: The value was 15.

Question: Which results are given for CCNC(=O)c1cccc(NC(=O)c2cc(C(C)(C)C)nn2CC)n1 [Compound 144]?
Answer: Plant response rating (0 = no effect, 100 = complete control), Nutsedge, Yellow (yellow nutsedge; 62 g ai/ha, preemergence): 0; Plant response rating, Nutsedge, Yellow (yellow nutsedge; [3]): 0; Nutsedge, Yellow plant response rating (yellow nutsedge; [13]): 0; Plant response rating, Nutsedge, Yellow (yellow nutsedge; [14]): 0; Nutsedge, Yellow plant response rating (yellow nutsedge; [15]): 40; Plant response rating, Nutsedge, Yellow (yellow nutsedge; [16]): 0; Plant response rating, Nutsedge, Yellow (yellow nutsedge; [17]): 0; Plant response rating (0 = no effect, 100 = complete control), Bermudagrass (bermudagrass; 62 g ai/ha, preemergence): 70; Plant response rating, Bermudagrass (bermudagrass; [3]): 80; Plant response rating, Bermudagrass (bermudagrass; [18]): 80; Bermudagrass plant response rating (bermudagrass; [6]): 90; Plant response rating, Bermudagrass (bermudagrass; [16]): 0; Plant response rating, Bermudagrass (bermudagrass; [17]): 0; Morningglory plant response rating (morningglory; [7]): 25; Plant response rating, Morningglory (morningglory; [8]): 35; Morningglory plant response rating (morningglory; Preemergence, 500 g ai/ha, visual rating, 0 to 100 scale (0 no effect, 100 complete control)): 20; Morningglory plant response rating (morningglory; [9]): 75; Plant response rating (0 = no effect, 100 = complete control), Cupgrass, Woolly (woolly cupgrass; 62 g ai/ha, preemergence): 0; Plant response rating, Cupgrass, Woolly (woolly cupgrass; [3]): 5; Plant response rating, Cupgrass, Woolly (woolly cupgrass; [18]): 5; Cupgrass, Woolly plant response rating (woolly cupgrass; [13]): 50; Plant response rating, Cupgrass, Woolly (woolly cupgrass; [14]): 50; Cupgrass, Woolly plant response rating (woolly cupgrass; [15]): 70; Plant response rating, Cupgrass, Woolly (woolly cupgrass; [16]): 30; Plant response rating, Cupgrass, Woolly (woolly cupgrass; [17]): 0; Plant response rating, Velvetleaf (velvetleaf; [3]): 100; Velvetleaf plant response rating (velvetleaf; [13]): 50; Plant response rating, Velvetleaf (velvetleaf; [14]): 50; Velvetleaf plant response rating (velvetleaf; [15]): 100; Plant response rating, Velvetleaf (velvetleaf; [16]): 20; Plant response rating, Velvetleaf (velvetleaf; [17]): 0; Plant response rating (0 = no effect, 100 = complete control), Foxtail, Giant (giant foxtail; 62 g ai/ha, preemergence): 40; Plant response rating, Foxtail, Giant (giant foxtail; [3]): 70; Plant response rating, Foxtail, Giant (giant foxtail; [18]): 100; Foxtail, Giant plant response rating (giant foxtail; [13]): 70; Plant response rating, Foxtail, Giant (giant foxtail; [14]): 50; Foxtail, Giant plant response rating (giant foxtail; [15]): 100; Plant response rating, Foxtail, Giant (giant foxtail; [16]): 10; Plant response rating, Foxtail, Giant (giant foxtail; [17]): 0; Barnyardgrass plant response rating (barnyardgrass; [10]): 20; Barnyardgrass plant response rating (barnyardgrass; 125 g ai/ha, scale of 0 to 100, 0 is no effect, 100 is complete control): 20; Barnyardgrass plant response rating (barnyardgrass; [11]): 50; Plant response rating, Barnyardgrass (barnyardgrass; [12]): 60; Plant response rating (0 = no effect, 100 = complete control), Sunflower ([1]; 62 g ai/ha, preemergence): 0; Plant response rating, Sunflower [1, 3]: 0; Sunflower plant response rating [1, 15]: 40
